# Laboratory results as given in ChEMBL document CHEMBL4619731, “Identification of a new class of non-electrophilic TRPA1 agonists by a structure-based virtual screening approach” (Bioorg Med Chem Lett, 2020).
# Biological target: Transient receptor potential cation channel subfamily A member 1 (Homo sapiens) (UniProt O75762)
# Experiment: Agonist activity at TRPA1 (unknown origin) at 1000 uM relative to AITC
# Transient receptor potential cation channel subfamily A member 1 (Homo sapiens), sequence (O75762 whole entry): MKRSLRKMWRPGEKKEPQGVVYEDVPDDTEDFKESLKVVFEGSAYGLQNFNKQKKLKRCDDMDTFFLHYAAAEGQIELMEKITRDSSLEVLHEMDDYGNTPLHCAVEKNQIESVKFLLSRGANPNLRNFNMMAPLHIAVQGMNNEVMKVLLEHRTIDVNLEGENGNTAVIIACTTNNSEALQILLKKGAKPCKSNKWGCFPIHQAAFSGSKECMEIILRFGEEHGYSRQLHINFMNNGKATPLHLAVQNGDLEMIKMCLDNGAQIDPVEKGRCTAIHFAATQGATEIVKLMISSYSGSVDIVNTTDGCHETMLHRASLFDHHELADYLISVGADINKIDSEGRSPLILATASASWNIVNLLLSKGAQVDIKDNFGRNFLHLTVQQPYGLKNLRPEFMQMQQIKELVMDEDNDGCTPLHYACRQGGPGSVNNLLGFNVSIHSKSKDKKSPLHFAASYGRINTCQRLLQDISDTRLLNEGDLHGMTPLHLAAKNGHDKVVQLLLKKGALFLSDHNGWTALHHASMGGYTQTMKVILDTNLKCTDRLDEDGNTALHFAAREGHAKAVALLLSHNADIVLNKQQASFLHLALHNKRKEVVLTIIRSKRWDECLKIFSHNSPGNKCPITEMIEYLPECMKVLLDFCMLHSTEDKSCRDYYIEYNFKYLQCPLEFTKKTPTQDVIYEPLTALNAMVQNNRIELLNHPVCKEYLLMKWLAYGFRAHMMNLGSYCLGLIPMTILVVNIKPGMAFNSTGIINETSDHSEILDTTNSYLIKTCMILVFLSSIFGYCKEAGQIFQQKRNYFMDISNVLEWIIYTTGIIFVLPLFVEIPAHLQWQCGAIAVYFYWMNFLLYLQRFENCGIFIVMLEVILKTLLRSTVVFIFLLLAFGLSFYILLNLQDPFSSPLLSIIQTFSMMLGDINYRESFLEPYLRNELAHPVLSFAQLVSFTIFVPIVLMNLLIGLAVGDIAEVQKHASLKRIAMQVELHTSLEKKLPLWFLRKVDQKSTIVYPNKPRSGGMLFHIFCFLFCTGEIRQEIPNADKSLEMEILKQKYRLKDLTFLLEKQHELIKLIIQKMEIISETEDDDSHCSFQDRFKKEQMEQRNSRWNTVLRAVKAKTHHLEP
row,Structure (SMILES),Activity
1,CCCCCCCCOC(=O)CCC,13%
2,CCCCCCCCC(=O)OCC,12%
3,CCCCCCCCCCCC(=O)OCC,15%
4,COc1cc(C2OCC3C(c4cc(OC)c(O)c(OC)c4)OCC23)cc(OC)c1O (centres undefined),26%
5,CCCCCCCOC(C)=O,8%
6,CCCC(=O)OCCc1ccccc1,62%
7,CCCCCCCC1CCC(=O)O1 (centres undefined),27%
8,O=c1c(O[C@@H]2O[C@@H](CO)[C@H](O)[C@H]2O)c(-c2ccc(O)c(O)c2)oc2cc(O)cc(O)c12,41%
9,CCCCCCCCCC(=O)OCC,16%
10,CCCCCCCCCC(=O)OC,14%
11,O=C(O[C@H]1Cc2c(O)cc(O)cc2O[C@@H]1c1ccc(O)c(O)c1)c1cc(O)c(O)c(O)c1,15%
12,CCOC(=O)CC(O)(CC(=O)OCC)C(=O)OCC,18%
13,CCCCCCCCC(=O)OC,39%
14,C[C@@H]1O[C@@H](O[C@H]2[C@H](Oc3cc(O)c4c(c3)O[C@H](c3ccc(O)cc3)CC4=O)O[C@H](CO)[C@@H](O)[C@@H]2O)[C@H](O)[C@H](O)[C@H]1O,20%
15,CCCCCCCCCCCCCC(=O)OCC,17%
16,CC(C)C(=O)OCCc1ccccc1,37%
17,CCCCC(CC)CO (centres undefined),60%
18,CCCCCCCCCC(C)=O,15%
19,CCCCCCCCCCCCCC(C)=O,10%
20,Oc1cc(O)c2c(c1)O[C@H](c1ccc(O)c(O)c1)[C@H](O)[C@H]2c1c(O)cc(O)c2c1O[C@H](c1ccc(O)c(O)c1)[C@H](O)C2,22%
21,CCCCCCCCCC(C)O (centres undefined),16%
22,CCCCCCCCOC(C)=O,8%
23,C/C=C/C(=O)C1=C(C)C=CCC1(C)C,13%
24,CCCCCCCCCCO,71%
25,CCCCCCCC1CCCC(=O)O1 (centres undefined),20%

row,Structure (SMILES),Activity
1,CCCC(=O)OCC(C)C,19%
2,O=c1cc(-c2ccc(O)cc2)oc2c([C@@H]3O[C@H](CO)[C@@H](O)[C@H](O)[C@H]3O)c(O)cc(O)c12,15%
3,CC(=O)OCC(COC(C)=O)OC(C)=O,17%
4,CCCCCCCCCCCCCC(=O)O,23%
5,CCCCCCCCCCCCO,12%
6,CC(=O)OC(C)C,10%
7,CCCCCCCC(=O)CC,15%
8,CCCCCCCC(=O)OCCC(C)C,12%
9,O=c1cc(-c2ccc(O)cc2)oc2cc(O[C@@H]3O[C@H](CO)[C@@H](O)[C@H](O)[C@H]3O)c([C@@H]3O[C@H](CO)[C@@H](O)[C@H](O)[C@H]3O)c(O)c12,20%
10,CCCCCCCCCC(=O)OCCC(C)C,13%
11,CCCCCCCCCCCCCCCC(=O)OC,17%
12,OC[C@H]1O[C@H](O[C@H]2[C@H](O)[C@@H](O)[C@@H](O[C@H]3[C@H](O)[C@@H](O)C(O)O[C@@H]3CO)O[C@@H]2CO)[C@H](O)[C@@H](O)[C@@H]1O (some centres undefined),14%
13,CCCCCCCCCCCO,20%
14,CC(O)CO (centres undefined),12%
15,CCCCCCCC(=O)OC,33%
16,CCCCCCCCCCC(C)=O,13%
17,CCCCCC(=O)OCC(C)C,23%
18,CCCCC(CC)COC(=O)c1ccccc1O (centres undefined),14%
19,O=c1ccn([C@@H]2O[C@H](CO)[C@@H](O)[C@H]2O)c(=O)[nH]1,11%
20,CCCCCCCCCCCC(C)=O,13%
21,CCCCCC(=O)OCCC(C)C,16%
22,CCCCCCCCC(C)=O,11%
23,CCCCCCCC(=O)OCC,9%
24,CCOC(=O)c1ccco1,12%
